This is an account of results in patent US10626094B2 (La Jolla Institute of Allergy & Immunology, priority 2014, dated 2020).

Data set [1] concerns the target LYP-1 (lymphoid phosphatase, LYP) (Homo sapiens (Human), UniProt Q9Y2R2). The data set can be described thus: LYP-1 phosphatase selectivity dose response assay. It counts as biochemical. The source says: Disclosed herein is a collection of small-molecule inhibitors of the low molecular weight protein tyrosine phosphatase (LMPTP). The assays utilized in the primary and secondary screening were designed to identify allosteric inhibitors of LMPTP. […] The structure of the compounds was further optimized to generate a series of inhibitors of LMPTP-A isoform, with high selectivity over the LMPTP-B isoform, LYP and VHR, and with cellular activity. In an aspect is provided a compound having the formula: […]
LYP-1 and VHR-1 dose response assays to assess selectivity of Compound D1 against these non-homologous phosphatases.

In the next data set the test system is 3T3-L1 cells. The data set can be described thus: insulin-based mouse 3T3-L1 adipogenesis assay (AdipoRed). The conditions noted are these: 10 μM compound. It counts as cell-based. On the procedure: The probe Compound D1 was also profiled in an insulin-based mouse 3T3-L1 adipogenesis assay. In this assay, 3T3-L1 pre-adipocytes are grown to 2-days post-confluence in DMEM with 10% bovine calf serum, and then induced to differentiate to adipocytes following stimulation for 2 days with an induction cocktail containing 1 μg/ml insulin, 1 μM dexamethasone, and 0.5 mM 3-isobutyl-1-methylxanthine in DMEM containing 10% fetal bovine serum (FBS).^44 2 days later, the media is replaced with DMEM with 10% FBS and 1 μg/ml insulin, and after 2 additional days, the media is replaced with DMEM with 10% FBS for 2 additional days, at which point adipogenesis is measured using the AdipoRed Adipogenesis Assay Reagent from Lonza, according to the manufacturer's instructions. In brief, the assay reagent is added to the wells containing cells, where it partitions into the fat droplets of differentiated adipocytes, and emits fluorescence at 572 nm that can be detected with a plate-reader. To test the effect of probe Compound D1, cells were plated into 48-well plates and allowed to grow to confluence. Cells were then treated with 10 μM Compound D1 or 0.025% DMSO, and after 2 days induced to differentiate in the presence of 10 μM Compound D1 or 0.025% DMSO. Fresh compound or DMSO was added during each media replacement.

Data set [2] can be described thus: hepatic microsomal stability, human liver microsomes. Type of data set: in vitro ADME. The source says:
In the course of this investigation many compounds with similar potencies in the LMPTP (OMFP) assay were found. In order to determine which compound would be the best candidate for in vivo studies, an abbreviated ADME panel was ran on these compounds, a tabulation of the most interesting data on this set of compounds is illustrated in Table 3 below. From the hepatic microsome stability data the candidate selected for in vivo studies was Compound D1.
The microsomal stability assay is commonly used to rank compounds according to their metabolic stability. This assay addresses the pharmacologic question of how long the parent compound will remain circulating in plasma within the body.
Background: Liver microsomes are a subcellular fraction often used to study metabolism.

The nature of data set [3]: serum creatinine (kidney function) in treated mice. The note with it: treated mice vs vehicle. Type of data set: in vivo, mouse. On the procedure: Serum creatinine levels from mice treated with Compound D1 (ML400) or vehicle (mice shown in FIG. 9) were assessed using the QuantiChrom Creatinine Assay Kit from BioAssay Systems.
Data set [4] can be described thus: serum alanine transaminase / aspartate transaminase (liver function) in treated mice. Type of data set: in vivo, mouse. The conditions noted are these: treated mice vs vehicle. On the procedure:
Serum alanine transaminase or aspartate transaminase levels from mice treated with Compound D1 (ML400) or vehicle (mice shown in FIG. 10) were assessed using EnzyChrom Assay Kits from BioAssay Systems.

pIC50: −log10 of the molar value.

Chain of LYP-1 (lymphoid phosphatase, LYP) (Q9Y2R2 whole entry, species assumed, canonical isoform): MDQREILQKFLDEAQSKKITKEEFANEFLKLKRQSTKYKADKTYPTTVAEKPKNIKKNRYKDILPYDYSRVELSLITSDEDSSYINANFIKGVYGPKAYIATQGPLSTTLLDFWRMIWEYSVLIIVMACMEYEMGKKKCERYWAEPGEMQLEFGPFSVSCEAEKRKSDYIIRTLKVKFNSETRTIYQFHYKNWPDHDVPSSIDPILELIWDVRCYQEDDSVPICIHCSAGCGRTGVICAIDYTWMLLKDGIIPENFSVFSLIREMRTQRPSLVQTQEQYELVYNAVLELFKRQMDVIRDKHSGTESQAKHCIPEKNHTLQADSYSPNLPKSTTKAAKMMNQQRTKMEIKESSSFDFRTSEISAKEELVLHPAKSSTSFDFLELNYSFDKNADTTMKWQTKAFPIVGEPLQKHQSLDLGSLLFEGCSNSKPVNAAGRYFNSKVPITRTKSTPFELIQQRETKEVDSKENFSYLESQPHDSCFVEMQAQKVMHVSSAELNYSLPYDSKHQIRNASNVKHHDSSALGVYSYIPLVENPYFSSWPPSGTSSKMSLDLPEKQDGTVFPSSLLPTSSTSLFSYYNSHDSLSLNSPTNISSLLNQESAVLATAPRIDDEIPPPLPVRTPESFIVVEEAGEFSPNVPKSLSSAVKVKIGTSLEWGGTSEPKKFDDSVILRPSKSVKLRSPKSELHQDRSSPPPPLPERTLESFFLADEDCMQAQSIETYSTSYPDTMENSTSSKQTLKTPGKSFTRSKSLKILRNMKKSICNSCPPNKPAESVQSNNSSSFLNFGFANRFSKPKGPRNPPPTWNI

For `COc1ccc(-c2cc(NCCCN3CCCCC3)c3ccccc3n2)cc1` [Compound D1, 2-(4-methoxyphenyl)-N-(3-(piperidin-1-yl)propyl)quinolin-4-amine], the Fold-Selective in data set [1] (LMPTP over LYP-1) was >60-fold. For the same compound, the pIC50 (usually the IC50 on a negative log10 scale, so that one unit is a factor of ten) in data set [1] (n = 2, AID743309, read-out: Anti-target LYP-1 IC50) was under 4.10. Also, the 3T3-L1 adipogenesis entry in the data set on 3T3-L1 cells is given as “completely abolished”. Moreover, in data set [2] (Human microsomes, 1 hr), the “Hepatic Microsome Stability % Remaining @ 1 hr” value is 61.56%. Besides, in data set [2] (human liver microsomes after 1 hour), the microsomal stability entry is recorded as “moderate stability”. Further, in data set [3], the “kidney function (serum creatinine)” value is “does not Affect Kidney Function”. In data set [4], the “liver function (serum alanine transaminase or aspartate transaminase)” value is “does not Affect Liver Function”.
